According to PubChem BioAssay AID1963843 (Molecular Pharmacology Branch, DTP, NCI, 2024):
pIC50: −log10 of the molar value. “And” between values parts separate entries of the source, which are not always exact repeats. Identical values can stand only once.

Test system: 616215-338-R-J1-PDC complex spheroid viability
Assay: Anticancer human tumor 616215-338-R-J1-PDC patient-derived colon adenocarcinoma cell line growth inhibition [POLQ]
Conditions: for viability, T/C: stronger effect = lower value
Description: Multicellular complex tumor spheroid response to Polymerase (POL) inhibitors (novobiocin, ART-558, RP6685) in combination with a variety of drugs and investigational agents in selected tumor cell lines
The POL inhibitors (novobiocin, ART-558, and RP6685) were evaluated both individually and in combination with standard of care and investigational anticancer small molecules within a complex spheroid model of solid tumors. . Complex spheroids include a stromal component modeled by human endothelial cells (HUVEC) and fibroblasts modeled by human mesenchymal stem cells (MSCs). The concentration ranges selected for each drug and investigational agent were based upon clinically achievable concentrations if the clinical Cmax of the agent was known.
Compounds. The drugs and investigational agents: novobiocin (NSC847541), ART-558 (NSC835418), RP-6685 (NSC848927), peposertib (NSC802822), ceralasertib (NSC780249), elimusertib (NSC800525), camonsertib (NSC841442), AZD-1390 (NSC803789), olaparib (NSC753686), talazoparib (NSC767125), rucaparib (NSC756644), sotorasib (NSC818433), MRTX-1133 (NSC836407), SN-38 (NSC673596), topotecan (NSC609699), epotoside (NSC141540), doxorubicin (NSC123127), gemcitabine (NSC613327), 5-fluorouracil (NSC19893), paclitaxel (NSC125973), vemurafenib (NSC761431), MSA-2 (NSC828583), SN-011 (NSC837082), adavosertib (NSC754352), prexasertib (NSC758257), carboplatin (NSC241240) and oxaliplatin (NSC266046), were obtained from the National Cancer Institute (NCI) Developmental Therapeutics Program Chemical Repository (21). The FDA-approved anticancer drug set is available from the Developmental Therapeutics Program at https://dtp.cancer.gov/organization/dscb/obtaining/. […] The stock solutions were prepared in dimethyl sulfoxide (DMSO, Sigma-Aldrich, St. Louis, MO, cat. D2650), except for the platinum compounds which were prepared in saline (Quality Biological, Gaithersburg, MD, cat. 114-055-101), at 800-fold the tested concentration and stored at -70 degrees C prior to their use. All drugs and investigational agents were tested over a range starting from a high concentration at or near the clinical Cmax and decreasing in half-log increments. If the clinical Cmax for an agent had not been determined, the highest concentration tested was 10 microM, except for SN-38, which was tested at a high concentration of 1 microM.
Cell Culture. All cells were maintained in an incubator at 37 degrees C and 5% CO2 with 95% humidity. The PDC lines were cultured according to standard operating procedures established by the NCI PDMR (https://pdmr.cancer.gov). Table 3 of the manuscript, lists the cell lines along with the number of the three cell types plated to form the mct-spheroids and media for tumor cell growth. After thawing, all PDC lines, except 997537-175-T-J1-PDC and 415267-285-R-J2-PDC, were cultured in Matrigel-coated flasks prepared with a working solution of 1X Ham's F-12 nutrient mix, without supplementation (Thermo Fisher Scientific, cat. 11765054), 100 U/mL penicillin-streptomycin (Thermo Fisher Scientific, cat. 15140122), and 2.5% Matrigel (Corning Inc., Corning, NY, cat. 354248) for the first three passages. The two PDC lines 997537-175-T-J1-PDC and 415267-285-R-J2-PDC were cultured on uncoated flasks. The 857933-349-R-J2-PDC line was cultured in 6C/Colon 1B media containing advanced DMEM/F-12 (Thermo Fisher Scientific, cat. 12634028), 10 mM HEPES (Thermo Fisher Scientific, cat. 15630080), 1X GlutaMAX supplement (Thermo Fisher Scientific, cat. 35050061), 0.1 mg/mL primocin (InvivoGen, San Diego, CA, cat. ant-pm-2), 10% defined fetal bovine serum, heat inactivated (HyClone Laboratories Inc., Logan, UT, cat. SH30070.03HI), 50% L-WRN conditioned media (ATCC, cat. CRL-3276), 1.25 mM N-Acetyl-L-cysteine (Sigma-Aldrich, cat. A9165), 10 mM nicotinamide (Sigma-Aldrich, cat. N0636), 1X B-27 supplement (Thermo Fisher Scientific, cat. 17504044), 1X N-2 supplement (Thermo Fisher Scientific, cat. […]

[1] = curve of first compound, second compound 0.0316 µM
[2] = curve of first compound, second compound 0.1 µM
[3] = curve of first compound, second compound 0.316 µM
[4] = curve of first compound, second compound 1 µM
[5] = curve of first compound, second compound 3.16 µM
[6] = curve of first compound, second compound 10 µM
[7] = second compound 0.0316 µM, first compound 0.0316 µM
[8] = second compound 0.0316 µM, first compound 0.1 µM
[9] = second compound 0.0316 µM, first compound 0.316 µM
[10] = second compound 0.0316 µM, first compound 1 µM
[11] = second compound 0.0316 µM, first compound 3.16 µM
[12] = second compound 0.0316 µM, first compound 10 µM
[13] = second compound 0.1 µM, first compound 0.0316 µM
[14] = second compound 0.1 µM, first compound 0.1 µM
[15] = second compound 0.1 µM, first compound 0.316 µM
[16] = second compound 0.1 µM, first compound 1 µM
[17] = second compound 0.1 µM, first compound 3.16 µM
[18] = second compound 0.1 µM, first compound 10 µM
[19] = second compound 0.316 µM, first compound 0.0316 µM
[20] = second compound 0.316 µM, first compound 0.1 µM
[21] = second compound 0.316 µM, first compound 0.316 µM
[22] = second compound 0.316 µM, first compound 1 µM
[23] = second compound 0.316 µM, first compound 3.16 µM
[24] = second compound 0.316 µM, first compound 10 µM
[25] = second compound 1 µM, first compound 0.0316 µM
[26] = second compound 1 µM, first compound 0.1 µM
[27] = second compound 1 µM, first compound 0.316 µM
[28] = second compound 1 µM, first compound 1 µM
[29] = second compound 1 µM, first compound 3.16 µM
[30] = second compound 1 µM, first compound 10 µM
[31] = second compound 3.16 µM, first compound 0.0316 µM
[32] = second compound 3.16 µM, first compound 0.1 µM
[33] = second compound 3.16 µM, first compound 0.316 µM
[34] = second compound 3.16 µM, first compound 1 µM
[35] = second compound 3.16 µM, first compound 3.16 µM
[36] = second compound 3.16 µM, first compound 10 µM
[37] = second compound 10 µM, first compound 0.0316 µM
[38] = second compound 10 µM, first compound 0.1 µM
[39] = second compound 10 µM, first compound 0.316 µM
[40] = second compound 10 µM, first compound 1 µM
[41] = second compound 10 µM, first compound 3.16 µM
[42] = second compound 10 µM, first compound 10 µM
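Note: spheroids exposed to compounds for one week before readout.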
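Throughout, for viability, T/C: percent viability relative to DMSO vehicle wells taken as 100%.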

For CC[C@@]1(O)C(=O)OCc2c1cc1n(c2=O)Cc2cc3c(CN(C)C)c(O)ccc3nc2-1, the viability, T/C (compound 0.000316 µM) was 83.5% and 113% and 93.4%, the viability, T/C (compound 0.001 µM) was 99.2% and 100% and 96.4% and the viability, T/C (compound 0.00316 µM) was 99.6% and 109% and 96.2%. For the same compound, the viability, T/C (compound 0.01 µM) was 97.7% and 101% and 110%, the viability, T/C (compound 0.0316 µM) was 111% and 70.1% and 103% and the viability, T/C (compound 0.1 µM) was 82.6% and 39% and 93.5%. The pIC50 (curve of compound) was < 7.00 and 7.18.
With CC(C)n1c(=O)n(C)c2cnc3cc(F)c(-c4ccc(OCCCN5CCCCC5)nc4)cc3c21 + COC1C(OC(N)=O)C(O)C(Oc2ccc3c(O)c(NC(=O)c4ccc(O)c(CC=C(C)C)c4)c(=O)oc3c2C)OC1(C)C the pIC50 [1] was under 5.00, the pIC50 [2] was under 5.00 and the pIC50 [3] was under 5.00. The pIC50 [4] was under 5.00, the pIC50 [5] was under 5.00 and the pIC50 [6] was under 5.00. It also gave a viability, T/C [7] of 92.8%, a viability, T/C [8] of 94.6% and a viability, T/C [9] of 104%. For the same compound, the viability, T/C [10] was 109%, the viability, T/C [11] was 130% and the viability, T/C [12] was 104%. The viability, T/C [13] was 97.8%, the viability, T/C [14] was 98.6% and the viability, T/C [15] was 101%. It also gave a viability, T/C [16] of 108%, a viability, T/C [17] of 112% and a viability, T/C [18] of 113%. It also gave a viability, T/C [19] of 108%, a viability, T/C [20] of 98.6% and a viability, T/C [21] of 104%. For the same compound, the viability, T/C [22] was 99.6%, the viability, T/C [23] was 121% and the viability, T/C [24] was 99.5%. For the same compound, the viability, T/C [25] was 117%, the viability, T/C [26] was 117% and the viability, T/C [27] was 95.2%. It also gave a viability, T/C [28] of 106%, a viability, T/C [29] of 116% and a viability, T/C [30] of 102%. It also gave a viability, T/C [31] of 112%, a viability, T/C [32] of 111% and a viability, T/C [33] of 109%. For the same compound, the viability, T/C [34] was 105%, the viability, T/C [35] was 99.6% and the viability, T/C [36] was 93.2%. For the same compound, the viability, T/C [37] was 99.9%, the viability, T/C [38] was 102% and the viability, T/C [39] was 101%. The viability, T/C [40] was 102%, the viability, T/C [41] was 107% and the viability, T/C [42] was 94.5%.
CNCc1ccc(-c2[nH]c3cc(F)cc4c3c2CCNC4=O)cc1 + Nc1ccc(C#CCN(C(=O)Cc2ncc(C(F)(F)F)cc2C(F)(F)F)c2ccc(F)cc2)nn1 showed a pIC50 [1] of 5.10, a pIC50 [2] of 5.14 and a pIC50 [3] of 5.11. For the same compound, the pIC50 [4] was 5.12, the pIC50 [5] was 5.15 and the pIC50 [6] was 5.21. For the same compound, the viability, T/C [7] was 101%, the viability, T/C [8] was 107% and the viability, T/C [9] was 97%. For the same compound, the viability, T/C [10] was 104%, the viability, T/C [11] was 104% and the viability, T/C [12] was 36.2%. The viability, T/C [13] was 104%, the viability, T/C [14] was 111% and the viability, T/C [15] was 90.3%. It also gave a viability, T/C [16] of 119%, a viability, T/C [17] of 122% and a viability, T/C [18] of 25.8%. It also gave a viability, T/C [19] of 102%, a viability, T/C [20] of 112% and a viability, T/C [21] of 104%. It also gave a viability, T/C [22] of 95.7%, a viability, T/C [23] of 119% and a viability, T/C [24] of 33.4%. For the same compound, the viability, T/C [25] was 107%, the viability, T/C [26] was 94.8% and the viability, T/C [27] was 95.8%. The viability, T/C [28] was 105%, the viability, T/C [29] was 106% and the viability, T/C [30] was 33%. It also gave a viability, T/C [31] of 96.8%, a viability, T/C [32] of 93.3% and a viability, T/C [33] of 93.8%. For the same compound, the viability, T/C [34] was 102%, the viability, T/C [35] was 105% and the viability, T/C [36] was 28.6%. For the same compound, the viability, T/C [37] was 93%, the viability, T/C [38] was 78.5% and the viability, T/C [39] was 102%. The viability, T/C [40] was 103%, the viability, T/C [41] was 103% and the viability, T/C [42] was 17.9%.
